The subject of test [1] is Cdc7 (pS53MCM2 levels in SW48 cells). Put plainly: Cdc7 Cell Pharmacodynamics Assay Method 3: pS53MCM2 levels in SW48 cells, 6 hours. The class given is cell-based. The note with it: Homo sapiens, SW48, 6 h, read-out: Biomarker Method 3 (pEC50) (converted). An excerpt: This protocol describes a method to investigate the inhibition of Cdc7 activity by measuring pS53MCM2 levels in cells, after treatment with compounds.
• SW48 cells • RPMI 1640 (Sigma, R5886) • 10% FCS (Sera Laboratories International Ltd, EU000F Batch:108005) • 100× L-Glutamine (Invitrogen, 25030-024) • D-Glucose Solution (10%) (Sigma, G8644) • HEPES Buffer Solution (Sigma, 83264) • Sodium Pyruvate (Sigma, S8636) • PBS (Fisger, BP399-4) • Trypsin/EDTA (Invitrogen 25300-054) • 2% BSA in PBS • Cell Extraction Buffer (Invitrogen FNN0011) • Protease inhibitor cocktail (Sigma P-2714) • PMSF 0.3M stock in DMSO (Sigma P7626) • Antibody-rabbit pMCM2 Ser53 (Bethyl #A300-756A) • Antibody-goat MCM2 (Bethyl #A300-122A) • Antibody-goat Anti Rabbit IgG HRP (Perbio Science UK Ltd 31462) • SuperSignal ELISA Pico Chemiluminescent Substrate (Perbio Science UK Ltd 37070) Method • Plate 30,000 SW48 cells per well in standard TC treated 96 well plate in 100 μL complete RPMI 1640 medium. • Allow cells to settle overnight in incubator set at 37° C. and 5% CO2. • Cell treatment: prepare a 384 well plate containing 80 μl PBS/well. The PBS should be at room temperature—to be referred to as intermediate plate. Transfer 2 μL of compound from mother plate to intermediate (daughter plate) 1:40 dilution, then 5 μL intermediate to cell (daughter) plate. • Once all cells are treated place the cells back to the incubator and incubate for 6 hours. • Dilute the capture antibody (total MCM2#A300-122A) 1 in 250 in the required volume of PBS (5 mL per assay plate, plus 5 mL for dead volume) and add 50 μL to each well of a Hybond plate. Seal the plate and incubate at room temperature for a minimum of 2 hours. • Defrost aliquot of Invitrogen Cell Extraction Buffer (FNN0011) on ice and supplement with appropriate volume of both Sigma protease inhibitor cocktail (P-2714) and PMSF (final conc 1 mM from a 1 M stock in DMSO). • After the 6 hour cell treatment time, tap out the media from the assay plates and place them in the −80° C. freezer for at least 5 minutes. • Remove plates from freezer and add 20 μL of ice cold complete lysis buffer, with the multidrop. Incubate cells for 30 minutes at 4° C. • Add 80 μL per well 2% BSA. • Flick out the remaining liquid from the capture plate and transfer 80 μL from the lysis plate to the same wells in the capture/ELISA plate, using the Biomek. Cover with plate seal and incubate plates overnight at 4° C. • Wash plates with PBS, remove any residual remaining liquid and add 50 μL per well of pMCM2 Ser53 antibody (#A300-756A) diluted 1 in 100 in 2% BSA. Cover plate and incubate at room temperature for 2 hours with gentle shaking. • Wash plates with PBS, remove any residual remaining liquid and Incubate with 50 μL goat anti rabbit antibody (1 in 800 dilution in 2% BSA), for 1 hour at room temperature. • Wash plates with PBS, remove any residual remaining liquid and add 50 μL mixed SuperSignal Pico substrate. • Incubate each plate for 5 minutes at room temperature shielding the plates from direct light (with a cover plate). Read plates with the luminescent detection.

The target in the next test is Cdc7/ASK (Homo sapiens, UniProt O00311). Put plainly: Cdc7 Biochemical Assay Method 4: off-chip mobility shift assay (Carna Biosciences). The note with it: off-chip MSA, MCM2 peptide, 5 hours; read-out: Biochemical Method 4 (pIC50) (converted). On the set-up: purchased Carna Biosciences; host or cells: baculovirus expression system. The protocol: This protocol describes a method for assaying Cdc7/ASK for activity. The assay is an off-chip mobility shift assay (MSA) run at Carna Biosciences.
1. Preparation of Test Compound Solution.
The test compound was dissolved in and diluted with dimethylsulfoxide (DMSO) to achieve 100-fold higher concentration which was specified by the sponsor. Then the solution was further 25-fold diluted with assay buffer to make the final test compound solution. Reference compounds for assay control were prepared similarly.
Cdc7/ASK: Full-length human Cdc7 [1-574(end) amino acids of accession number NP_003494.1] was co-expressed as N-terminal GST-fusion protein (92 kDa) with Dbf4(ASK) [1-674(end) amino acids of accession number NP_006707.1] using baculovirus expression system. GST-Cdc7 was purified by using glutathione sepharose chromatography.
3. Assay Reagents and Procedures
Off-chip Mobility Shift Assay (MSA)
1) The […] of ×2 kinase solution were prepared with assay buffer (20 mM HEPES, 0.01% Triton X-100, 1 mM DTT, pH 7.5) and mixed and incubated in a well of polypropylene 384 well microplate for 5 hours at room temperature. 2) […] of Termination Buffer (QuickScout Screening Assist MSA; Carna Biosciences) was added to the well. 3) The reaction mixture was applied to LabChip system (Perkin Elmer), and the product and substrate peptide peaks were separated and quantitated. 4) The kinase reaction was evaluated by the product ratio calculated from peak heights of product (P) and substrate (S) peptides (P/(P+S)).
Reaction time is 5 hours.
The readout value of reaction control (complete reaction mixture) was set as a 0% inhibition, and the readout value of background (Enzyme(−)) was set as a 100% inhibition, then the percent inhibition of each test solution was calculated.
IC50 value was calculated from concentration vs. % Inhibition curves by fitting to a four parameter logistic curve.

Each structure is given as a SMILES string.

Chain of Cdc7/ASK (O00311 whole entry): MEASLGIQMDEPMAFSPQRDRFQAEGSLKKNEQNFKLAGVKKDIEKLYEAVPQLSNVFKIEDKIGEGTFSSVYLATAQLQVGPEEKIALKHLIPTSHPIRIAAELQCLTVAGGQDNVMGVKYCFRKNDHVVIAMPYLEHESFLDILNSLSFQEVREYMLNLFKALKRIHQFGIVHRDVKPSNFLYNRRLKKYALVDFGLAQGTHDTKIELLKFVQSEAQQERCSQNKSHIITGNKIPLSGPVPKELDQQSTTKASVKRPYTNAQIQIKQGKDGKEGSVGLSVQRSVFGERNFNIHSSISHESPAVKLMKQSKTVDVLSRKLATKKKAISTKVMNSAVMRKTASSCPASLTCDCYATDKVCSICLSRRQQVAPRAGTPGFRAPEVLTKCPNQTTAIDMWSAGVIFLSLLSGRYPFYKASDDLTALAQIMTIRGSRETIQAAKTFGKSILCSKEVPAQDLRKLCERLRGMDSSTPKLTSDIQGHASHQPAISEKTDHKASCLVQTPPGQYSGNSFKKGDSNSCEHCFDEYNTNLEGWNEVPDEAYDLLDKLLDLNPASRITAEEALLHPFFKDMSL
Chain of Cdc7/ASK (Q9UBU7 whole entry partner): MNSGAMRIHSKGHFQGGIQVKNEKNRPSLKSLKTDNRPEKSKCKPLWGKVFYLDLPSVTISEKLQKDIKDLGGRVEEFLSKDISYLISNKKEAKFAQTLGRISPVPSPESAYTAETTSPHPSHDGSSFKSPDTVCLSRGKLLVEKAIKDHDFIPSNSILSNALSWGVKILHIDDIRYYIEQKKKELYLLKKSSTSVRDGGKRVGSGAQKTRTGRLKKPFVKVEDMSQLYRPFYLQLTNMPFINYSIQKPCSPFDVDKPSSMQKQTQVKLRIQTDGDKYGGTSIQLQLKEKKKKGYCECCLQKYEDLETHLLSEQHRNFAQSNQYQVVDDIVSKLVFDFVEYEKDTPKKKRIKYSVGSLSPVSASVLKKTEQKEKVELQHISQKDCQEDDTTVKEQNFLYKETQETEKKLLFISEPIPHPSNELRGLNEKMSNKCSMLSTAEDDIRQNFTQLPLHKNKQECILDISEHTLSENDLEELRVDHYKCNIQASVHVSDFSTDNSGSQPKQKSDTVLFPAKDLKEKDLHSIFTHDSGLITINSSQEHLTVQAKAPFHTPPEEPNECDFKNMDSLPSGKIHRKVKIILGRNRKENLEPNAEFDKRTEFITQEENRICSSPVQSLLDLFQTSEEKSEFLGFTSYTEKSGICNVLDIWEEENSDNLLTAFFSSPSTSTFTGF

Consider `C[C@@H]1CNCCN1c1nc(-c2ccncc2F)[nH]c(=O)c1Cl` [Compound 400], for which the EC50 in test [1] is 195 nM. Besides, the IC50 on Cdc7/ASK was 5.75 nM.
For `O=c1[nH]c(-c2ccnc(Cl)c2)nc(N2CCNCC(F)(F)C2)c1Cl` [Compound 401], in that order: 437 nM and 4.79 nM.
For `CN1CCN(c2nc(-c3ccnc(F)c3)[nH]c(=O)c2Cl)CC(F)(F)C1` [Compound 415, 5-chloro-4-(6,6-difluoro-4-methyl-1,4-diazepan-1-yl)-2-(2-fluoro-4-pyridyl)-1H-pyrimidin-6-one], in that order: 708 nM and 9.33 nM.
